Measured values: article PMC6891286, “Towards the Development of an In vivo Chemical Probe for Cyclin G Associated Kinase (GAK)” (Molecules, 2019)

Columns and labels:
Assay in all cases: KINOMEscan
Assay type in all cases: binding
Settings in all cases: 35 at 1 µM; read-out: % inhibition
[1] = molecular target: T1, PRKD1 (Homo sapiens, UniProt Q15139)
T1 construct: purchased Eurofins DiscoverX (KINOMEscan)
Protocol: (§1) KinomeScan Assay on 35 was performed as previously described at EuroFins DiscoverX (Fremont, CA, USA).

[2] = molecular target: T2, WEE1 (Homo sapiens, UniProt P30291)
T2 construct: purchased EuroFins DiscoverX (Fremont, CA, USA)
Protocol: as §1

[3] = molecular target: T3, PFTAIRE2 (Homo sapiens, UniProt Q96Q40)
T3 construct: purchased Eurofins DiscoverX (KINOMEscan)
Protocol: as §1

[4] = molecular target: T4, CAMK2D (Homo sapiens, UniProt Q13557)
T4 construct: purchased Eurofins DiscoverX (KINOMEscan)
Protocol: as §1

[5] = molecular target: T5, PAK1 (Homo sapiens, UniProt Q13153)
T5 construct: purchased Eurofins DiscoverX (KINOMEscan)
Protocol: as §1

[6] = molecular target: T6, AURKA (Homo sapiens, UniProt O14965)
T6 construct: purchased Eurofins DiscoverX (KINOMEscan)
Protocol: as §1

[7] = molecular target: T7, RET (Homo sapiens, UniProt P07949)
T7 construct: purchased Eurofins DiscoverX (KINOMEscan)
Protocol: as §1

[8] = molecular target: T8, IKK-alpha (Homo sapiens, UniProt O15111)
T8 construct: purchased Eurofins DiscoverX (KINOMEscan)
Protocol: as §1

[9] = molecular target: T9, INSR (Homo sapiens, UniProt P06213)
T9 construct: purchased Eurofins DiscoverX (KINOMEscan)
Protocol: as §1

[10] = molecular target: T10, AURKB (Homo sapiens, UniProt Q96GD4)
T10 construct: purchased Eurofins DiscoverX (KINOMEscan)
Protocol: as §1

[11] = molecular target: T11, RSK3(Kin.Dom.1-N-terminal) (Homo sapiens, UniProt Q15349)
T11 construct: RSK3(Kin.Dom.1-N-terminal); purchased Eurofins DiscoverX (KINOMEscan)
Protocol: as §1

[12] = molecular target: T12, BLK (Homo sapiens, UniProt P51451)
T12 construct: purchased Eurofins DiscoverX (KINOMEscan)
Protocol: as §1

[13] = molecular target: T13, SNARK (Homo sapiens, UniProt Q9H093)
T13 construct: purchased Eurofins DiscoverX (KINOMEscan)
Protocol: as §1

[14] = molecular target: T14, KIT-autoinhibited (Homo sapiens, UniProt P10721)
T14 construct: purchased Eurofins DiscoverX (KINOMEscan)
Protocol: as §1

[15] = molecular target: T15, WEE2 (Homo sapiens, UniProt P0C1S8)
T15 construct: purchased Eurofins DiscoverX (KINOMEscan)
Protocol: as §1

[16] = molecular target: T16, OSR1 (Homo sapiens, UniProt O95747)
T16 construct: purchased Eurofins DiscoverX (KINOMEscan)
Protocol: as §1

[17] = molecular target: T17, CAMK1B (Homo sapiens, UniProt Q6P2M8)
T17 construct: purchased Eurofins DiscoverX (KINOMEscan)
Protocol: as §1

[18] = molecular target: T18, EPHA1 (Homo sapiens, UniProt P21709)
T18 construct: purchased Eurofins DiscoverX (KINOMEscan)
Protocol: as §1

[19] = molecular target: T19, GRK7 (Homo sapiens, UniProt Q8WTQ7)
T19 construct: purchased Eurofins DiscoverX (KINOMEscan)
Protocol: as §1

[20] = molecular target: T20, PIK3CA(I800L) (Homo sapiens, UniProt P42336, I800L)
T20 construct: purchased Eurofins DiscoverX (KINOMEscan)
Protocol: as §1

[21] = molecular target: T21, PAK7 (Homo sapiens, UniProt Q9P286)
T21 construct: purchased Eurofins DiscoverX (KINOMEscan)
Protocol: as §1

[22] = molecular target: T22, DYRK1B (Homo sapiens, UniProt Q9Y463)
T22 construct: purchased Eurofins DiscoverX (KINOMEscan)
Protocol: as §1

[23] = molecular target: T23, LOK (Homo sapiens, UniProt O94804)
T23 construct: purchased Eurofins DiscoverX (KINOMEscan)
Protocol: as §1

[24] = molecular target: T24, PIK3CB (Homo sapiens, UniProt P42338)
T24 construct: purchased Eurofins DiscoverX (KINOMEscan)
Protocol: as §1

[25] = molecular target: T25, ABL1(H396P)-nonphosphorylated (Homo sapiens, UniProt P00519, H396P)
T25 construct: purchased Eurofins DiscoverX (KINOMEscan)
Protocol: as §1

[26] = molecular target: T26, RAF1 (Homo sapiens, UniProt P04049)
T26 construct: purchased Eurofins DiscoverX (KINOMEscan)
Protocol: as §1

[27] = molecular target: T27, CDKL5 (Homo sapiens, UniProt O76039)
T27 construct: purchased Eurofins DiscoverX (KINOMEscan)
Protocol: as §1

[28] = molecular target: T28, ROS1 (Homo sapiens, UniProt P08922)
T28 construct: purchased Eurofins DiscoverX (KINOMEscan)
Protocol: as §1

[29] = molecular target: T29, FLT3 (Homo sapiens, UniProt P36888)
T29 construct: purchased Eurofins DiscoverX (KINOMEscan)
Protocol: as §1

[30] = molecular target: T30, AKT1 (Homo sapiens, UniProt P31749)
T30 construct: purchased Eurofins DiscoverX (KINOMEscan)
Protocol: as §1

[31] = molecular target: T31, EPHB4 (Homo sapiens, UniProt P54760)
T31 construct: purchased Eurofins DiscoverX (KINOMEscan)
Protocol: as §1

[32] = molecular target: T32, SIK2 (Homo sapiens, UniProt Q9H0K1)
T32 construct: purchased Eurofins DiscoverX (KINOMEscan)
Protocol: as §1

[33] = molecular target: T33, TNK2 (Homo sapiens, UniProt Q07912)
T33 construct: purchased Eurofins DiscoverX (KINOMEscan)
Protocol: as §1

[34] = molecular target: T34, CSNK1G3 (Homo sapiens, UniProt Q9Y6M4)
T34 construct: purchased Eurofins DiscoverX (KINOMEscan)
Protocol: as §1

[35] = molecular target: T35, RPS6KA5(Kin.Dom.1-N-terminal) (Homo sapiens, UniProt O75582)
T35 construct: RPS6KA5(Kin.Dom.1-N-terminal); purchased Eurofins DiscoverX (KINOMEscan)
Protocol: as §1

[36] = molecular target: T36, TIE2 (Homo sapiens, UniProt Q02763)
T36 construct: purchased Eurofins DiscoverX (KINOMEscan)
Protocol: as §1

[37] = molecular target: T37, ERK5 (Homo sapiens, UniProt Q13164)
T37 construct: purchased Eurofins DiscoverX (KINOMEscan)
Protocol: as §1

[38] = molecular target: T38, INSRR (Homo sapiens, UniProt P14616)
T38 construct: purchased Eurofins DiscoverX (KINOMEscan)
Protocol: as §1

[39] = molecular target: T39, ROCK2 (Homo sapiens, UniProt O75116)
T39 construct: purchased Eurofins DiscoverX (KINOMEscan)
Protocol: as §1

[40] = molecular target: T40, EIF2AK1 (Homo sapiens, UniProt Q9BQI3)
T40 construct: purchased Eurofins DiscoverX (KINOMEscan)
Protocol: as §1

[41] = molecular target: T41, PIP5K2C (Homo sapiens, UniProt Q8TBX8)
T41 construct: purchased Eurofins DiscoverX (KINOMEscan)
Protocol: as §1

[42] = molecular target: T42, PFPK5(P.falciparum) (Plasmodium falciparum, UniProt P61075)
T42 construct: purchased Eurofins DiscoverX (KINOMEscan)
Protocol: as §1

T9 sequence (P06213 28-1382): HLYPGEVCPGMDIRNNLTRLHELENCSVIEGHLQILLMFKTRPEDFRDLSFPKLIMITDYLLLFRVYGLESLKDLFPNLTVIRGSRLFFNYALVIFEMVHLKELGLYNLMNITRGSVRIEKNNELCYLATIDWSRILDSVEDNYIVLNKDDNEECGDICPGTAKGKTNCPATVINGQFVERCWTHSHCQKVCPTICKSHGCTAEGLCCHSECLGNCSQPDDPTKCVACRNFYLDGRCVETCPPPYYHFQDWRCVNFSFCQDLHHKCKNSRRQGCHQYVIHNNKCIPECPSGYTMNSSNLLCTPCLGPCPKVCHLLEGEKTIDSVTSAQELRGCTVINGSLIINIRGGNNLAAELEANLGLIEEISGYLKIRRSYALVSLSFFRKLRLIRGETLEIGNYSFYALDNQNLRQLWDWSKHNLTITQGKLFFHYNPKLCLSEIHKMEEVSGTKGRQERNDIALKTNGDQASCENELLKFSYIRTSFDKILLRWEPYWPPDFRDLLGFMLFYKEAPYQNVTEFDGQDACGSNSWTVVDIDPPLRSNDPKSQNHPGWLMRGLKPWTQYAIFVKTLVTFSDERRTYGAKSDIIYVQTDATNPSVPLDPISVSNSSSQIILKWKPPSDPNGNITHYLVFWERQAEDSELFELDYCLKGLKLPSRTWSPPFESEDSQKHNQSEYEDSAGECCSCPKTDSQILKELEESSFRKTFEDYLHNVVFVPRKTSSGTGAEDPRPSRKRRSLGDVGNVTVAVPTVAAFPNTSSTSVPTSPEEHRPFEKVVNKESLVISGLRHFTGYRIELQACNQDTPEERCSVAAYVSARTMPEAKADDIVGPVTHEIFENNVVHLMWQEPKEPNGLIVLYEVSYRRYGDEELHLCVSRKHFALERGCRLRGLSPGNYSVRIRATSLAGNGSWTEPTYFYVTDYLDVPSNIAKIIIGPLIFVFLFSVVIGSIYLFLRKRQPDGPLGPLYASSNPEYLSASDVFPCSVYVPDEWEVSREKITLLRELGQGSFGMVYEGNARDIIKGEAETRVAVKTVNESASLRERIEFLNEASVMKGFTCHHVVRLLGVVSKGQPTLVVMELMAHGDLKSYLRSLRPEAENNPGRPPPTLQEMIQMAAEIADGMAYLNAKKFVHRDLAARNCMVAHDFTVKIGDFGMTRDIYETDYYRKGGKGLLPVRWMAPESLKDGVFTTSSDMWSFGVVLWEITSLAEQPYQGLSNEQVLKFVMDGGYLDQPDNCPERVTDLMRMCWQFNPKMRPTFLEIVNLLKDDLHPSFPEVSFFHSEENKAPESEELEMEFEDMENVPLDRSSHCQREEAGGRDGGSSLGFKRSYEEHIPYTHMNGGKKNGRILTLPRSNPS
T11 sequence (Q15349 1-388 limits assumed): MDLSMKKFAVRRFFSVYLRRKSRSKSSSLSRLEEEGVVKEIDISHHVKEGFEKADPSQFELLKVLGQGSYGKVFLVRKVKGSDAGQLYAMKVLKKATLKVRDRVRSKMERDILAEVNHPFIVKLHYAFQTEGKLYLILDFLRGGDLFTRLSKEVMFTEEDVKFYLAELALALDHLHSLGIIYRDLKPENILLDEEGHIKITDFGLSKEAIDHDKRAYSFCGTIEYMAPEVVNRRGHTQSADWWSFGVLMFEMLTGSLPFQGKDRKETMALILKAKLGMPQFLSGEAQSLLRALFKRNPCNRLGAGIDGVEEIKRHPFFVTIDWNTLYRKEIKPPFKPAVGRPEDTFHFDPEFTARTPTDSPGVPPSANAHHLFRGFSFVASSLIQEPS
T14 sequence (P10721 26-976): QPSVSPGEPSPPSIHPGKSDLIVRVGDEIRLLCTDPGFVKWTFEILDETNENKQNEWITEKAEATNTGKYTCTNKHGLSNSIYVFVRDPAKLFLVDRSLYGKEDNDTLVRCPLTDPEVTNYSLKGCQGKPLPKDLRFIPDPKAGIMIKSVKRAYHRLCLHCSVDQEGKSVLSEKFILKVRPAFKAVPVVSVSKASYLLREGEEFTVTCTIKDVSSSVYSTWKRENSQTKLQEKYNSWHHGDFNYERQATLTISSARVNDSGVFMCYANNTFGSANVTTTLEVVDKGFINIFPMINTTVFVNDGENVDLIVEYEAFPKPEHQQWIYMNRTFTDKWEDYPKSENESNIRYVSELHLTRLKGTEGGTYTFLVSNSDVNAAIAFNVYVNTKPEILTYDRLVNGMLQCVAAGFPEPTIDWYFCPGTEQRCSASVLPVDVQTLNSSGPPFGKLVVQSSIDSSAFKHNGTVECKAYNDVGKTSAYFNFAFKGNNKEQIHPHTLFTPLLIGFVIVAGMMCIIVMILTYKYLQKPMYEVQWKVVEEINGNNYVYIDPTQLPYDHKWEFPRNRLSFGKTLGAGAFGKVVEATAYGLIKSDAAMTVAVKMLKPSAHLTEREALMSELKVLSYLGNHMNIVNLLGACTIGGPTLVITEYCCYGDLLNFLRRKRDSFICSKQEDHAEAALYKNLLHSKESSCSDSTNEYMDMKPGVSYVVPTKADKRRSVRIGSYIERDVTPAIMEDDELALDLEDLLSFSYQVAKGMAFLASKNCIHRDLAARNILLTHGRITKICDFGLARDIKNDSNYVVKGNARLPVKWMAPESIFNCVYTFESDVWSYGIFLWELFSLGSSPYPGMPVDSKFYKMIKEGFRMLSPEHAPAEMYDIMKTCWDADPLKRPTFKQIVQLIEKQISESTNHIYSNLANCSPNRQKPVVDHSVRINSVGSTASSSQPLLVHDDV
T15 sequence (P0C1S8 whole entry): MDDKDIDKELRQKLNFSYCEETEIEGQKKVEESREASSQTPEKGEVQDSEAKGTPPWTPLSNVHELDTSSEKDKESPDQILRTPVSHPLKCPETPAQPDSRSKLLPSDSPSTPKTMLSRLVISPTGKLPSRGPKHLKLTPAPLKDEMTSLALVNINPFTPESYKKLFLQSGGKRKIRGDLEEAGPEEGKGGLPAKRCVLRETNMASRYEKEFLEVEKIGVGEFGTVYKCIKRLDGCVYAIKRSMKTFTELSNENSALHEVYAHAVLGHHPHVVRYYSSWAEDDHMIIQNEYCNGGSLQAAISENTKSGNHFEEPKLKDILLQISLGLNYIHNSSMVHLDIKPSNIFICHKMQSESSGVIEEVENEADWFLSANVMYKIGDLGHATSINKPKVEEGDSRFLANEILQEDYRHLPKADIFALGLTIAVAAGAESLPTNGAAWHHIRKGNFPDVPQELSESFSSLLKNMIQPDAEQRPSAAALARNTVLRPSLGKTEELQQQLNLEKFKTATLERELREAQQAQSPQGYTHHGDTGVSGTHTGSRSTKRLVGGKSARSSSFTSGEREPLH
T1 sequence (Q15139 whole entry): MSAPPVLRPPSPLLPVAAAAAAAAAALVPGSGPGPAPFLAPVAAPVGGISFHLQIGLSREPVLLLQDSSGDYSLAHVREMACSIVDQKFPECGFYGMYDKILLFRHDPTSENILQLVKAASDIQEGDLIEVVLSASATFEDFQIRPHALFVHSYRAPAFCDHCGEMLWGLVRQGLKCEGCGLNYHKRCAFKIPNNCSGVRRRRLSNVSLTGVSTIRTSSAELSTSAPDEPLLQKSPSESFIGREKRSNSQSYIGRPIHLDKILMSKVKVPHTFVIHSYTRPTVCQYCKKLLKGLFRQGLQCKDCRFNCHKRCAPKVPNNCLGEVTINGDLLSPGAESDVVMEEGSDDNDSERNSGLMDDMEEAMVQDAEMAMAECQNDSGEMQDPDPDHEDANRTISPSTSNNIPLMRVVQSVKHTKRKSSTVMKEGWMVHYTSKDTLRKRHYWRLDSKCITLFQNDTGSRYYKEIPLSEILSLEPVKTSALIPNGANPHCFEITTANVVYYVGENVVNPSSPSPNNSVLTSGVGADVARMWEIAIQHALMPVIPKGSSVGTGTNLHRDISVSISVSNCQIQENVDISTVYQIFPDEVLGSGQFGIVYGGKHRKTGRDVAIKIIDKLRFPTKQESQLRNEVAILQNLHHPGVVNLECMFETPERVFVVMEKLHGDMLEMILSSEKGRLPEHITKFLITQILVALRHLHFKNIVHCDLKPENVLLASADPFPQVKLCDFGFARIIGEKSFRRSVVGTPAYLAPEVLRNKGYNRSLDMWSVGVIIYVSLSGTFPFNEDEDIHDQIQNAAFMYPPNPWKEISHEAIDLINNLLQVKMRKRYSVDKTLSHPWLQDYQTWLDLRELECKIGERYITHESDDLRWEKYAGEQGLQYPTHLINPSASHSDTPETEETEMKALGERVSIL
T35 sequence (O75582 1-387 limits assumed): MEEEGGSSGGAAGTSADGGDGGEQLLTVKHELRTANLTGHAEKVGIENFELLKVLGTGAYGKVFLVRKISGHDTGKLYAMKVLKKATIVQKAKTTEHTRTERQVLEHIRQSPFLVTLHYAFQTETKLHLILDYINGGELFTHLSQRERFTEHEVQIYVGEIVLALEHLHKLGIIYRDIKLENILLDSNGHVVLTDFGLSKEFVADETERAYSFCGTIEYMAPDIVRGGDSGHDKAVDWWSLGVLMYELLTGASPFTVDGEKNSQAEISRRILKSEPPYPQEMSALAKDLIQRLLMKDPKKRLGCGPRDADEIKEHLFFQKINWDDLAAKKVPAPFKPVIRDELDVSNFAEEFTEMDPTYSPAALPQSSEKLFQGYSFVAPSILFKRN
T10 sequence (Q96GD4 whole entry): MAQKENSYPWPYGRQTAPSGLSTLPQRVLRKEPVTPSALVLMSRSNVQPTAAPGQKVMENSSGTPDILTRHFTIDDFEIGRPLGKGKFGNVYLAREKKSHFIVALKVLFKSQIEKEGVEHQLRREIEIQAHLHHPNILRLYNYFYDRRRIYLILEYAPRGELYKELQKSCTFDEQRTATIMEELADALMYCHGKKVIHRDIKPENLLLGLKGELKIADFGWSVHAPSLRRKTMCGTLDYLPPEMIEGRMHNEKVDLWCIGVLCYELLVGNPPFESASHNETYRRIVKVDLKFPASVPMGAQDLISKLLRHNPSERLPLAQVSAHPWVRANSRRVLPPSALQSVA

**Q.** What does the source list for `Brc1ccc2nccc(Nc3ccc4cn[nH]c4c3)c2c1` [Compound 35, 6-Bromo-N-(1H-indazol-6-yl)quinolin-4-amine]?
**A.** activity at 1 µM [1]: 100%; activity at 1 µM [2]: 100%; activity at 1 µM [3]: 100%; activity at 1 µM [4]: 100%; activity at 1 µM [5]: 85%; activity at 1 µM [6]: 100%; activity at 1 µM [7]: 100%; activity at 1 µM [8]: 100%; activity at 1 µM [9]: 99%; activity at 1 µM [10]: 90%; activity at 1 µM [11]: 100%; activity at 1 µM [12]: 96%; activity at 1 µM [13]: 100%; activity at 1 µM [14]: 100%; activity at 1 µM [15]: 97%; activity at 1 µM [16]: 76%; activity at 1 µM [17]: 92%; activity at 1 µM [18]: 100%; activity at 1 µM [19]: 100%; activity at 1 µM [20]: 76%; activity at 1 µM [21]: 100%; activity at 1 µM [22]: 100%; activity at 1 µM [23]: 100%; activity at 1 µM [24]: 94%; activity at 1 µM [25]: 86%; activity at 1 µM [26]: 100%; activity at 1 µM [27]: 100%; activity at 1 µM [28]: 94%; activity at 1 µM [29]: 100%; activity at 1 µM [30]: 100%; activity at 1 µM [31]: 100%; activity at 1 µM [32]: 97%; activity at 1 µM [33]: 95%; activity at 1 µM [34]: 100%; activity at 1 µM [35]: 100%; activity at 1 µM [36]: 100%; activity at 1 µM [37]: 100%; activity at 1 µM [38]: 100%; activity at 1 µM [39]: 91%; activity at 1 µM [40]: 92%; activity at 1 µM [41]: 95%; activity at 1 µM [42]: 100%
